Test results: US9403850B2, “Beta-lactamase inhibitors” (priority 2013, dated 2016)

Tests used:
[1] = test system: K. pneumoniae A-1797 expressing KPC-2 and VIM-4; assay: Broth microdilution MIC assay, partner meropenem; assay type: cell-based; settings: Klebsiella pneumoniae, read-out: MIC of Exemplary Compounds in presence of fixed β-lactams, Fixed Mero, K.P. A-1797 KPC-2 VIM-4
[2] = molecular target: T1, VIM-2 (Escherichia coli, UniProt Q5U7L7); assay: β-Lactamase enzyme inhibition assay, VIM-2 (nitrocefin substrate); assay type: biochemical; settings: nitrocefin substrate 100 μM, 15 min preincubation at 37° C.; read-out: IC50, Class B VIM-2
T1 construct: made in house; host or cells: E. coli BL21(DE3)
Procedure, shortened: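 Purified VIM-2 (Q sepharose anion exchange, HEPES pH 7.5) preincubated with inhibitor 15 min at 37° C. Nitrocefin added at 100 μM final; absorbance at 486 nm monitored 10 min. IC50 from inhibition of initial hydrolysis rate versus inhibitor-free controls.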

[3] = test system: P. aeruginosa Ps296 expressing VIM-2; assay: Broth microdilution MIC assay, partner meropenem; assay type: cell-based; settings: Pseudomonas aeruginosa, read-out: MIC of Exemplary Compounds in presence of fixed β-lactams, Fixed Mero, P. aerug. Ps296 VIM-2
[4] = molecular target: T2, KPC-2 (Klebsiella pneumoniae, UniProt Q9F663); assay: β-Lactamase enzyme inhibition assay, KPC-2 (imipenem substrate); assay type: biochemical; settings: 15 min preincubation at 37° C., read-out: IC50, Class A KPC-2
T2 construct: expressed as native untagged proteins; made in house; host or cells: E. coli BL21(DE3)
Protocol: (§1) For SHV-5, Kpc-2, p99AmpC and OXA-1 β-lactamases, E. coli BL21(DE3) bacterial cells carrying expression plasmids (expressed as native untagged proteins) for the individual β-lactamases were grown in 1 L of Superbroth (Teknova Inc. Hollister, CA) supplemented with 100 μg/ml kanamycin selection and 1×5052 (0.5% glycerol, 0.05% glucose and 0.2% α-lactose) at 35° C. for 18-20 hours. Cells were harvested by centrifugation (4,000×g, 4° C., 20 min), resuspended in 50 ml of 10 mM HEPES pH 7.5 (1/20 of the initial volume). The cells were lysed by sonication (5 pulses of 45 seconds) at 45 W on ice. The lysates were clarified by centrifugation at 10,000×g for 40 minutes at 4° C. […] Active fractions were pooled concentrated, quantitated by BCA protein determination (Thermo Scientific, Rockford, Ill.), dialyzed into PBS and frozen at −80° C. in 20% glycerol until use.
(§2) An equal volume of diluted enzyme stock was added, and the plates were incubated at 37° C. for 15 min. […] Absorbance at 486 nm was immediately monitored for 10 min using a Biotek Powerwave XS2 microplate spectrophotometer using the GEN5 softweare package (Biotek Instruments, Winooski Vt.). […] Maximum rates of hydrolysis were compared to those in control wells (without inhibitors), and percentages of enzyme inhibition were calculated for each concentration of inhibitor. […]

[5] = test system: E. coli ESBL4 expressing CTX-M-15; assay: Broth microdilution MIC assay, partner ceftazidime;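 further: ceftazidime held fixed at 4 µg/mL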; assay type: cell-based; settings: Escherichia coli, read-out: MIC of Exemplary Compounds in presence of fixed β-lactams, Fixed CAZ, E. coli ESBL4 CTX-M-15
[6] = molecular target: T3, OXA-1 (Escherichia coli, UniProt P13661); assay: β-Lactamase enzyme inhibition assay, OXA-1 (nitrocefin substrate); assay type: biochemical; settings: nitrocefin substrate 100 μM, 15 min preincubation at 37° C.; read-out: IC50, Class D OXA-1
T3 construct: expressed as native untagged proteins; made in house; host or cells: E. coli BL21(DE3)
Protocol: as §1, §2

[7] = test system: K. pneumoniae 156319 expressing KPC-3; assay: Broth microdilution MIC assay, partner meropenem; assay type: cell-based; settings: Klebsiella pneumoniae, read-out: MIC of Exemplary Compounds in presence of fixed β-lactams, Fixed Mero, K.P. 156319 KPC-3
[8] = molecular target: T4, p99 AmpC (Enterobacter cloacae, UniProt P05364); assay: β-Lactamase enzyme inhibition assay, p99 AmpC (nitrocefin substrate); assay type: biochemical; settings: nitrocefin substrate 100 μM, 15 min preincubation at 37° C.; read-out: IC50, Class C AmpC
T4 construct: expressed as native untagged proteins; made in house; host or cells: E. coli BL21(DE3)
Protocol: as §1, §2

[9] = test system: S. aureus MSSA-7 producing penicillinase PC-1; assay: Broth microdilution MIC assay, partner piperacillin; assay type: cell-based; settings: Staphylococcus aureus, fixed piperacillin 4 μg/mL, read-out: MIC of Exemplary Compounds in presence of fixed β-lactams, Fixed Pip, S. aureus MSSA-7 PC-1
[10] = test system: E. cloacae 144200 expressing Class C P99 AmpC; assay: Broth microdilution MIC assay, partner ceftazidime;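 further: ceftazidime held fixed at 4 µg/mL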; assay type: cell-based; settings: Enterobacter cloacae, read-out: MIC of Exemplary Compounds in presence of fixed β-lactams, Fixed CAZ, E. cl. 144200 p99 AmpC
[11] = molecular target: T5, SHV-5 (Klebsiella pneumoniae, UniProt P0A3M1); assay: β-Lactamase enzyme inhibition assay, SHV-5 (cefotaxime substrate); assay type: biochemical; settings: 15 min preincubation at 37° C., read-out: IC50, Class A SHV-5
T5 construct: expressed as native untagged proteins; made in house; host or cells: E. coli BL21(DE3)
Protocol: as §1, §2

T2 sequence (Q9F663 25-293 limits assumed): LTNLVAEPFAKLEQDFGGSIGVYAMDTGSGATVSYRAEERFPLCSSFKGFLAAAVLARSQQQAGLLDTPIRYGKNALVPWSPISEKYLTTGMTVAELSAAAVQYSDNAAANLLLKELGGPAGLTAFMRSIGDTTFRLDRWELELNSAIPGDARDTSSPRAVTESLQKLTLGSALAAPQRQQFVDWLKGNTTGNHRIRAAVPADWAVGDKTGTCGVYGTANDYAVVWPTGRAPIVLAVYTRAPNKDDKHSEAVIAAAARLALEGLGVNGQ
T4 sequence (P05364 21-381): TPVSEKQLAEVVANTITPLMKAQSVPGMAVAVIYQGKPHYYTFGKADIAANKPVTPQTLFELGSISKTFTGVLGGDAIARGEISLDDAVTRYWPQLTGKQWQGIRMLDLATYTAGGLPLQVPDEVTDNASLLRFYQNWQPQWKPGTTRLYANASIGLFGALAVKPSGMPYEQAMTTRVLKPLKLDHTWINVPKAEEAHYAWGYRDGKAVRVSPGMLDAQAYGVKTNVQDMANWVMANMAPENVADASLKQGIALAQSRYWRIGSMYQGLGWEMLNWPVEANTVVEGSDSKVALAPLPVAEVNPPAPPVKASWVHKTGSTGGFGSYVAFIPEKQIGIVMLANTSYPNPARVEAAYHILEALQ
T5 sequence (P0A3M1 22-286): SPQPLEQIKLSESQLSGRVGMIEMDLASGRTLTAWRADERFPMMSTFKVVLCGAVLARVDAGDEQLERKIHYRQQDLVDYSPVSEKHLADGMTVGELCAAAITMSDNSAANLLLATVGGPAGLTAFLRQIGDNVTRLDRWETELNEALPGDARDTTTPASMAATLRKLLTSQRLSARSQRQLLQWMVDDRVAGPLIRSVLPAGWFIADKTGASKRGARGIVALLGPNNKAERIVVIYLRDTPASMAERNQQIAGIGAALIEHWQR
T3 sequence (P13661 26-276): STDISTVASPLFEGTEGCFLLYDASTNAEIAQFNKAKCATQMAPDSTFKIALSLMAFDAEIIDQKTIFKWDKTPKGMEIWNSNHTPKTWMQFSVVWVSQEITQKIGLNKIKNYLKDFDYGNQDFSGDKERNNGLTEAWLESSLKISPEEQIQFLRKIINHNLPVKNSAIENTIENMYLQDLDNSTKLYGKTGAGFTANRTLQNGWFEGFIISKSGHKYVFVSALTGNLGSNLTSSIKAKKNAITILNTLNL

SMILES: O=C(Cc1ccc2c(c1)CNC2)N[C@H]1Cc2cccc(C(=O)O)c2OB1O [Example 36, (3R)-2-hydroxy-3-[(2-isoindolin-5-ylacetyl)amino]-3,4-dihydro-1,2-benzoxaborinine-8-carboxylic acid]
- MIC [1]: > 32 µg/mL
- IC50 [2]: 100 to 1000 nM
- MIC [3]: < 4 µg/mL
- IC50 [4]: < 100 nM
- MIC [5]: < 4 µg/mL
- IC50 [6]: < 100 nM
- MIC [7]: < 4 µg/mL
- IC50 [8]: < 100 nM
- MIC [9]: < 4 µg/mL
- MIC [10]: < 4 µg/mL
- IC50 [11]: < 100 nM
